In PubChem BioAssay AID2060600 (Molecular Pharmacology Branch, DTP, NCI, 2025):

System: 996289-038-R-J1-PDC complex spheroid viability
Assay: Anticancer human tumor 996289-038-R-J1-PDC patient-derived colon adenocarcinoma cell line growth inhibition [CLK]
Settings: for IC50: curve of first compound; for viability, T/C: stronger effect = lower value
Method in brief: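 Multi-cell-type spheroids combined patient-derived tumor cells with HUVEC endothelial cells and human mesenchymal stem cells. Paired agents were dosed in half-log steps down from about clinical Cmax, or from 10 microM where Cmax was unknown.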

[1] = second compound 0.0316 µM, first compound 0.0316 µM
[2] = second compound 0.0316 µM, first compound 0.1 µM
[3] = second compound 0.0316 µM, first compound 0.316 µM
[4] = second compound 0.0316 µM, first compound 1 µM
[5] = second compound 0.0316 µM, first compound 3.16 µM
[6] = second compound 0.0316 µM, first compound 10 µM
[7] = second compound 0.1 µM, first compound 0.0316 µM
[8] = second compound 0.1 µM, first compound 0.1 µM
[9] = second compound 0.1 µM, first compound 0.316 µM
[10] = second compound 0.1 µM, first compound 1 µM
[11] = second compound 0.1 µM, first compound 3.16 µM
[12] = second compound 0.1 µM, first compound 10 µM
[13] = second compound 0.316 µM, first compound 0.0316 µM
[14] = second compound 0.316 µM, first compound 0.1 µM
[15] = second compound 0.316 µM, first compound 0.316 µM
[16] = second compound 0.316 µM, first compound 1 µM
[17] = second compound 0.316 µM, first compound 3.16 µM
[18] = second compound 0.316 µM, first compound 10 µM
[19] = second compound 1 µM, first compound 0.0316 µM
[20] = second compound 1 µM, first compound 0.1 µM
[21] = second compound 1 µM, first compound 0.316 µM
[22] = second compound 1 µM, first compound 1 µM
[23] = second compound 1 µM, first compound 3.16 µM
[24] = second compound 1 µM, first compound 10 µM
[25] = second compound 3.16 µM, first compound 0.0316 µM
[26] = second compound 3.16 µM, first compound 0.1 µM
[27] = second compound 3.16 µM, first compound 0.316 µM
[28] = second compound 3.16 µM, first compound 1 µM
[29] = second compound 3.16 µM, first compound 3.16 µM
[30] = second compound 3.16 µM, first compound 10 µM
[31] = second compound 10 µM, first compound 0.0316 µM
[32] = second compound 10 µM, first compound 0.1 µM
[33] = second compound 10 µM, first compound 0.316 µM
[34] = second compound 10 µM, first compound 1 µM
[35] = second compound 10 µM, first compound 3.16 µM
[36] = second compound 10 µM, first compound 10 µM
[37] = second compound 0.0316 µM, first compound 0.00316 µM
[38] = second compound 0.0316 µM, first compound 0.01 µM
[39] = second compound 0.1 µM, first compound 0.00316 µM
[40] = second compound 0.1 µM, first compound 0.01 µM
[41] = second compound 0.316 µM, first compound 0.00316 µM
[42] = second compound 0.316 µM, first compound 0.01 µM
[43] = second compound 1 µM, first compound 0.00316 µM
[44] = second compound 1 µM, first compound 0.01 µM
[45] = second compound 3.16 µM, first compound 0.00316 µM
[46] = second compound 3.16 µM, first compound 0.01 µM
[47] = second compound 10 µM, first compound 0.00316 µM
[48] = second compound 10 µM, first compound 0.01 µM
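Note: spheroids exposed to the agents for 7 days before readout.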

With `CC(CO)NC(=O)c1cc(-c2ccc(Cl)cc2)nn(-c2cnn(C)c2)c1=O` (stereo not drawn) + CNC(=O)c1ccc(Nc2nc(OC3CCCC3)c3c(-c4ccc5nc(C)oc5c4)c[nH]c3n2)c(OC)c1 the IC50 (second compound 0.0316 µM) was > 10000 nM, the IC50 (second compound 0.1 µM) was > 10000 nM and the IC50 (second compound 0.316 µM) was > 10000 nM. For the same compound, the IC50 (second compound 1 µM) was > 10000 nM, the IC50 (second compound 3.16 µM) was > 10000 nM and the IC50 (second compound 10 µM) was > 10000 nM. For the same compound, the viability, T/C [1] was 117%, the viability, T/C [2] was 111% and the viability, T/C [3] was 108%. For the same compound, the viability, T/C [4] was 117%, the viability, T/C [5] was 109% and the viability, T/C [6] was 99.6%. The viability, T/C [7] was 131%, the viability, T/C [8] was 113% and the viability, T/C [9] was 116%. For the same compound, the viability, T/C [10] was 95.4%, the viability, T/C [11] was 101% and the viability, T/C [12] was 83.7%. The viability, T/C [13] was 79.8%, the viability, T/C [14] was 76.9% and the viability, T/C [15] was 73.2%. It also gave a viability, T/C [16] of 71.4%, a viability, T/C [17] of 72.7% and a viability, T/C [18] of 68.9%. It also gave a viability, T/C [19] of 64.2%, a viability, T/C [20] of 63.7% and a viability, T/C [21] of 57.8%. The viability, T/C [22] was 57.5%, the viability, T/C [23] was 57.5% and the viability, T/C [24] was 49%. For the same compound, the viability, T/C [25] was 58.2%, the viability, T/C [26] was 57.6% and the viability, T/C [27] was 55.3%. It also gave a viability, T/C [28] of 54.7%, a viability, T/C [29] of 56.9% and a viability, T/C [30] of 48.3%. For the same compound, the viability, T/C [31] was 52.4%, the viability, T/C [32] was 56.9% and the viability, T/C [33] was 56.2%. It also gave a viability, T/C [34] of 58.5%, a viability, T/C [35] of 55.5% and a viability, T/C [36] of 44.8%.

`CC(Nc1ccc2c(c1)OCCn1cc(N3C(=O)OCC3C(F)F)nc1-2)C(N)=O` (stereo not drawn) + CNC(=O)c1ccc(Nc2nc(OC3CCCC3)c3c(-c4ccc5nc(C)oc5c4)c[nH]c3n2)c(OC)c1 was tested, and the IC50 (second compound 0.0316 µM) was > 10000 nM, the IC50 (second compound 0.1 µM) was 8750 nM and the IC50 (second compound 0.316 µM) was 655 nM. For the same compound, the IC50 (second compound 1 µM) was 45.3 nM, the IC50 (second compound 3.16 µM) was 48.9 nM and the IC50 (second compound 10 µM) was < 31.6 nM. It also gave a viability, T/C [1] of 113%, a viability, T/C [2] of 92.9% and a viability, T/C [3] of 83.4%. It also gave a viability, T/C [4] of 69.1%, a viability, T/C [5] of 60.2% and a viability, T/C [6] of 49.7%. It also gave a viability, T/C [7] of 114%, a viability, T/C [8] of 97.3% and a viability, T/C [9] of 82.1%. The viability, T/C [10] was 70.9%, the viability, T/C [11] was 61.1% and the viability, T/C [12] was 47.4%. The viability, T/C [13] was 69.1%, the viability, T/C [14] was 62.3% and the viability, T/C [15] was 53%. For the same compound, the viability, T/C [16] was 47.4%, the viability, T/C [17] was 42.2% and the viability, T/C [18] was 32.2%. The viability, T/C [19] was 52.9%, the viability, T/C [20] was 43.7% and the viability, T/C [21] was 38.3%. The viability, T/C [22] was 31.5%, the viability, T/C [23] was 29.2% and the viability, T/C [24] was 24.4%. It also gave a viability, T/C [25] of 53.7%, a viability, T/C [26] of 44.8% and a viability, T/C [27] of 33.1%. The viability, T/C [28] was 31.5%, the viability, T/C [29] was 25.4% and the viability, T/C [30] was 21.9%. It also gave a viability, T/C [31] of 46.7%, a viability, T/C [32] of 42.8% and a viability, T/C [33] of 31.2%. It also gave a viability, T/C [34] of 30.6%, a viability, T/C [35] of 27.1% and a viability, T/C [36] of 21.8%.

With `CCN1CCN(Cc2ccc(Nc3ncc(F)c(-c4cc(F)c5nc(C)n(C(C)C)c5c4)n3)nc2)CC1` + CNC(=O)c1ccc(Nc2nc(OC3CCCC3)c3c(-c4ccc5nc(C)oc5c4)c[nH]c3n2)c(OC)c1 the IC50 (second compound 0.0316 µM) was > 1000 nM, the IC50 (second compound 0.1 µM) was > 1000 nM and the IC50 (second compound 0.316 µM) was > 1000 nM. The IC50 (second compound 1 µM) was > 1000 nM, the IC50 (second compound 3.16 µM) was > 1000 nM and the IC50 (second compound 10 µM) was > 1000 nM. For the same compound, the viability, T/C [37] was 109%, the viability, T/C [38] was 103% and the viability, T/C [1] was 106%. For the same compound, the viability, T/C [2] was 97.6%, the viability, T/C [3] was 92.6% and the viability, T/C [4] was 96.2%. For the same compound, the viability, T/C [39] was 115%, the viability, T/C [40] was 111% and the viability, T/C [7] was 108%. The viability, T/C [8] was 91.8%, the viability, T/C [9] was 86.5% and the viability, T/C [10] was 86.7%. It also gave a viability, T/C [41] of 79%, a viability, T/C [42] of 81.2% and a viability, T/C [13] of 80.8%. The viability, T/C [14] was 75%, the viability, T/C [15] was 82.8% and the viability, T/C [16] was 76.8%. The viability, T/C [43] was 72.6%, the viability, T/C [44] was 70.2% and the viability, T/C [19] was 64.2%. For the same compound, the viability, T/C [20] was 66.9%, the viability, T/C [21] was 64.8% and the viability, T/C [22] was 77.1%. The viability, T/C [45] was 62.5%, the viability, T/C [46] was 62.1% and the viability, T/C [25] was 61.9%. The viability, T/C [26] was 64.9%, the viability, T/C [27] was 73.2% and the viability, T/C [28] was 65.9%. For the same compound, the viability, T/C [47] was 66%, the viability, T/C [48] was 63.9% and the viability, T/C [31] was 61.3%. For the same compound, the viability, T/C [32] was 62.2%, the viability, T/C [33] was 68.1% and the viability, T/C [34] was 59.8%.

In the case of `COc1c(OCCCN2CCOCC2)ccc2c3n(c(=NC(=O)c4cnc(N)nc4)nc12)CCN3` + CNC(=O)c1ccc(Nc2nc(OC3CCCC3)c3c(-c4ccc5nc(C)oc5c4)c[nH]c3n2)c(OC)c1, the IC50 (second compound 0.0316 µM) is reported as 123 nM, the IC50 (second compound 0.1 µM) is reported as 97.3 nM and the IC50 (second compound 0.316 µM) is reported as 28.9 nM. For the same compound, the IC50 (second compound 1 µM) was 7.67 nM, the IC50 (second compound 3.16 µM) was 3.86 nM and the IC50 (second compound 10 µM) was < 3.16 nM. It also gave a viability, T/C [37] of 112%, a viability, T/C [38] of 96.5% and a viability, T/C [1] of 72.6%. The viability, T/C [2] was 54.6%, the viability, T/C [3] was 35.4% and the viability, T/C [4] was 25.2%. For the same compound, the viability, T/C [39] was 112%, the viability, T/C [40] was 96.1% and the viability, T/C [7] was 71.8%. It also gave a viability, T/C [8] of 48.7%, a viability, T/C [9] of 33.8% and a viability, T/C [10] of 21.2%. It also gave a viability, T/C [41] of 70.2%, a viability, T/C [42] of 62.8% and a viability, T/C [13] of 47.7%. It also gave a viability, T/C [14] of 35.5%, a viability, T/C [15] of 22.9% and a viability, T/C [16] of 14.4%. It also gave a viability, T/C [43] of 59.1%, a viability, T/C [44] of 46.5% and a viability, T/C [19] of 33.8%. It also gave a viability, T/C [20] of 19.7%, a viability, T/C [21] of 15.6% and a viability, T/C [22] of 13.3%. It also gave a viability, T/C [45] of 51.2%, a viability, T/C [46] of 41.9% and a viability, T/C [25] of 29.5%. It also gave a viability, T/C [26] of 20.7%, a viability, T/C [27] of 13.5% and a viability, T/C [28] of 11.7%. The viability, T/C [47] was 46.6%, the viability, T/C [48] was 40.4% and the viability, T/C [31] was 28.9%. For the same compound, the viability, T/C [32] was 18.4%, the viability, T/C [33] was 12.7% and the viability, T/C [34] was 10.5%.
